Results on 22 molecules are retold here after patent US11078170B2 (Assembly Biosciences, Inc., priority 2017, dated 2021).

The subject of the assay is HBV viral production from HepAD38 cells. As to the kind of experiment: Activity of test compounds on viral production from HepAD38 cells (viral load by qPCR of HBV core sequence in supernatant). It is filed as cell-based. Particulars: Hepatitis B virus, 120 h, 5 days incubation, HBV DNA in supernatant by qPCR, top concentration 10 μM, read-out: Viral Load EC50 Activity range. The procedure:
Assay Measuring Activity of Test Compounds on Viral Production from HepAD38 Cells
HepAD38 cells grown in a T-150 flask (Corning, cat #: 430825) with Growth Medium (DMEM/F12 (1:1) (Hyclone, cat #: SH30023.02), 1×Pen/Strep (Invitrogen, cat #: 15140-122), 10% FBS (Tissue Culture Biologics, cat #: 101), 250 μg/mL G418 (Alfa Aesar, cat #: J62671), 1 μg/mL Tetracycline (Teknova, cat #: T3320)) were detached with 0.25% trypsin-EDTA (Invitrogen, cat #: 25200-056). Tetracycline-free treatment medium (15 mL DMEM/F12 (1:1) 1× Pen/step, with 2% FBS, Tet-system approved (Clontech, cat #: 631106) were then added to mix, transferred into a 50 ml conical tube (Falcon, cat #: 21008-918) and spun at 1300 rpm for 5 min. Pelleted cells were then re-suspended/washed with 50 mL of 1×DPBS (Invitrogen, cat #: 14190-136) 2 times and 50 mL treatment medium twice. HepAD38 cells were then re-suspended with 10 mL of treatment medium, syringed and counted. Wells of 96-well clear bottom TC plate (Corning, cat #: 3904) were seeded at 50,000 cells/well in 180 μL of treatment medium, and 20 μL of either 10% DMSO (Sigma, cat #: D4540) as controls or a 10× solution of test compounds in 10% DMSO in treatment media was added for a final compound concentration starting at 10 μM, and plates were incubated in 5% CO2 incubator at 37° C. for 5 days.
Subsequently viral load production was assayed by quantitative PCR (qPCR) of the HBV core sequence. PCR reaction mixture containing forward primers HBV-f 5′-CTGTGCCTTGGGTGGCTTT-3′, which is SEQ ID NO 1, (IDT DNA), Reverse primers HBV-r 5′-[…]-3′, which is SEQ ID NO 2 (IDT DNA), Fluorescent TaqMan™ Probes HBV-probe 5′-FAM/AGCTCCAAA/ZEN/[…]/3IABkFQ-3′ (IDT DNA), which is SEQ ID NO 3, 10 μL/well of PerfeCTa® qPCR ToughMix® (Quanta Biosciences, Cat #: 95114-05K), and 6 µL/well of DEPC water (Alfa Aesar, cat #: J62087) was prepared. Four μL of supernatant was added to 16 μL of the reaction mixture in a qPCR plate (Applied Biosytems, Cat #: 4309849), sealed with a film (Applied Biosystems, Cat #: 4311971), centrifuged for a few seconds, and subsequently run on an Applied Biosystems VIIA7. The PCR mixture was incubated at 45° C. for 5 min, then 95° C. for 10 min, followed by 40 cycles of 10 seconds at 95° C. and 20 seconds at 60° C. Viral load was quantified against known HBV DNA standards by using ViiA™ 7 Software. Viral load in the supernatant from wells with treated cells were compared against viral load in supernatant from DMSO control wells (≥3 per plate). Cell viability assay was performed with CellTiter-Glo Luminescent Cell Viability Assay (Promega, cat #: G7573) with modification. Mixed appropriate amount of CellTiter-Glo (CTG) 1×DPBS in a 1:1 ratio, added 100 uL of the mixture to each well followed completely removal of all supernatant in each well without touching cell surface. Incubated the plate at room temperature for 10 min on an orbital shaker, and then read the plate with a plate reader (TECAN M1000 or Envision). EC50 or CC50 values were calculated through curve-fitting of the four-parameter nonlinear-logistic-regression model (GraphPad Prism or Dotmatics). CC50 values were all >10 μM.
On the technique in general: Quantitative PCR measures a nucleic acid by following its amplification.

As for `CN1[C@@H](C(=O)Nc2ccc(F)c(Cl)c2)C[C@@H](c2ccc(-c3ccc(C#N)c(F)c3)s2)NS1(=O)=O` [HBV-CSU-156-ISO-II, Cis-N-(3-chloro-4-fluorophenyl)-5-(5-(4-cyano-3-fluorophenyl)thiophen-2-yl)-2-methyl-1,2,6-thiadiazinane-3-carboxamide 1,1-dioxide], the EC50 (as a rule, the midpoint of the concentration-response curve) is > 5000 nM.

For the molecule `[2H]C1[C@]([2H])(c2ccc(-c3cn(C([2H])([2H])[2H])cn3)s2)NS(=O)(=O)N(C([2H])([2H])[2H])[C@]1([2H])C(=O)Nc1ccc(F)c(Cl)c1` (stereo in doubt) [HBV-CSU-378-ISO-I, Cis-N-(3-chloro-4-fluorophenyl)-2-(methyl-d3)-5-(5-(1-(methyl-d3)-1H-imidazol-4-yl)thiophen-2-yl)-1,2,6-thiadiazinane-3,4,5-d3-3-carboxamide 1,1-dioxide], the EC50 is < 1000 nM.

Regarding `CN1[C@@H](C(=O)Nc2ccc(F)c(Cl)c2)C[C@@H](c2ncc(-c3cccs3)s2)NS1(=O)=O` [HBV-CSU-178-ISO-II, Cis-N-(3-Chloro-4-fluorophenyl)-2-methyl-5-(5-(thiophen-2-yl)thiazol-2-yl)-1,2,6-thiadiazinane-3-carboxamide 1,1-dioxide], the EC50 lay within 1000 to 5000 nM.

As to `CN1[C@H](C(=O)Nc2ccc(F)c(Cl)c2)C[C@H](c2ncc(-c3cncs3)s2)NS1(=O)=O` (relative stereo) [HBV-CSU-278-ISO-I, Cis-5-([5,5′-Bithiazol]-2-yl)-N-(3-chloro-4-fluorophenyl)-2-methyl-1,2,6-thiadiazinane-3-carboxamide 1,1-dioxide], the EC50 is < 1000 nM.

As to `CN1[C@@H](C(=O)Nc2ccc(F)c(Cl)c2)C[C@@H](c2cc(-c3ncn(C)n3)cs2)NS1(=O)=O` [HBV-CSU-326-ISO-II, Cis-N-(3-chloro-4-fluorophenyl)-2-methyl-5-(4-(1-methyl-1H-1,2,4-triazol-3-yl)thiophen-2-yl)-1,2,6-thiadiazinane-3-carboxamide 1,1-dioxide], the 50% effective concentration (EC50) is > 5000 nM.

In the case of `CN1C(C(=O)Nc2ccc(F)c(Cl)c2)CC(c2ncc(-c3cccs3)s2)NS1(=O)=O` (racemic) [HBV-CSU-178, Cis-N-(3-Chloro-4-fluorophenyl)-2-methyl-5-(5-(thiophen-2-yl)thiazol-2-yl)-1,2,6-thiadiazinane-3-carboxamide 1,1-dioxide], the EC50 was < 1000 nM.

Take `CN1C(C(=O)Nc2ccc(F)c(Cl)c2)CC(c2cc(-c3cncn3C)cs2)NS1(=O)=O` (racemic) [HBV-CSU-285, Cis-N-(3-Chloro-4-fluorophenyl)-2-methyl-5-(4-(1-methyl-1H-imidazol-5-yl)thiophen-2-yl)-1,2,6-thiadiazinane-3-carboxamide 1,1-dioxide]: the EC50 is < 1000 nM.

With `CN1[C@@H](C(=O)Nc2ccc(F)c(Cl)c2)C[C@@H](c2cccc(Cl)c2)NS1(=O)=O` [HBV-CSU-261-ISO-II, Cis-N-(3-Chloro-4-fluorophenyl)-5-(3-chlorophenyl)-2-methyl-1,2,6-thiadiazinane-3-carboxamide 1,1-dioxide], the EC50 was > 5000 nM.

As for `CN1C(C(=O)Nc2ccc(F)c(Cl)c2)CC(c2ncc(-c3ccn(C)n3)s2)NS1(=O)=O` (racemic) [HBV-CSU-280, Cis-N-(3-Chloro-4-fluorophenyl)-2-methyl-5-(5-(1-methyl-1H-pyrazol-3-yl)thiazol-2-yl)-1,2,6-thiadiazinane-3-carboxamide 1,1-dioxide], the EC50 was < 1000 nM.

On to `CN1C(C(=O)Nc2ccc(F)c(Cl)c2)CC(c2ncc(-c3cncs3)s2)NS1(=O)=O` (racemic) [HBV-CSU-278, Cis-5-([5,5′-Bithiazol]-2-yl)-N-(3-chloro-4-fluorophenyl)-2-methyl-1,2,6-thiadiazinane-3-carboxamide 1,1-dioxide], for which the EC50 is < 1000 nM.

In the case of `O=C(Nc1ccc(F)c(Cl)c1)C1CC(c2nccs2)NS(=O)(=O)N1CCc1c[nH]nn1` (racemic) [HBV-CSU-092, Cis-2-(2-(1H-1,2,3-Triazol-4-yl)ethyl)-N-(3-chloro-4-fluorophenyl)-5-(thiazol-2-yl)-1,2,6-thiadiazinane-3-carboxamide 1,1-dioxide], the EC50 was in the range of 1000 to 5000 nM.

On to `Cc1cnc(C2CC(C(=O)Nc3ccc(F)c(Cl)c3)N(C)S(=O)(=O)N2)s1` (stereo not shown), for which the EC50 is < 1000 nM.

In the case of `C[C@@H]1C[C@H](C(=O)Nc2ccc(F)c(Cl)c2)N(C)S(=O)(=O)N1` [HBV-CSU-050-ISO-II, Cis-N-(3-chloro-4-fluorophenyl)-2,5-dimethyl-1,2,6-thiadiazinane-3-carboxamide 1,1-dioxide], the EC50 is > 5000 nM.

For `CN1C(C(=O)Nc2ccc(Cl)c(F)c2)CC(c2cccs2)NS1(=O)=O` (stereo not drawn) [HBV-CSU-018, Cis-N-(4-Chloro-3-fluorophenyl)-2-methyl-5-(thiophen-2-yl)-1,2,6-thiadiazinane-3-carboxamide 1,1-dioxide], the EC50 was in the range of 1000 to 5000 nM.

For the molecule `CN1[C@H](C(=O)Nc2ccc(F)c(Cl)c2)C[C@H](c2ncc(-c3cncn3C)s2)NS1(=O)=O` [HBV-CSU-277-ISO-I, Cis-N-(3-Chloro-4-fluorophenyl)-2-methyl-5-(5-(1-methyl-1H-imidazol-5-yl)thiazol-2-yl)-1,2,6-thiadiazinane-3-carboxamide 1,1-dioxide], the EC50 is < 1000 nM.

Consider `CN1[C@H](C(=O)Nc2ccc(F)c(Cl)c2)C[C@H](c2cc(-c3ccc(C#N)c(F)c3)cs2)NS1(=O)=O` [HBV-CSU-164-ISO-I, Cis-N-(3-chloro-4-fluorophenyl)-5-(4-(4-cyano-3-fluorophenyl)thiophen-2-yl)-2-methyl-1,2,6-thiadiazinane-3-carboxamide 1,1-dioxide], for which the EC50 is < 1000 nM.

As for `[2H]C([2H])([2H])N1[C@H](C(=O)Nc2ccc(F)c(Cl)c2)C[C@H](c2ncc(-c3cn(C)cn3)s2)NS1(=O)=O` [HBV-CSU-338-ISO-I, Cis-N-(3-Chloro-4-fluorophenyl)-2-(methyl-d3)-5-(5-(1-methyl-1H-imidazol-4-yl)thiazol-2-yl)-1,2,6-thiadiazinane-3-carboxamide 1,1-dioxide], the EC50 was < 1000 nM.

For the molecule `CN1[C@@H](C(=O)Nc2ccc(F)c(Cl)c2)C[C@@H](c2cc(-c3nncn3C)cs2)NS1(=O)=O` [HBV-CSU-328-ISO-II, Cis-N-(3-chloro-4-fluorophenyl)-2-methyl-5-(4-(4-methyl-4H-1,2,4-triazol-3-yl)thiophen-2-yl)-1,2,6-thiadiazinane-3-carboxamide 1,1-dioxide], the EC50 was > 5000 nM.

In the case of `CN1[C@H](C(=O)Nc2ccc(F)c(Cl)c2)C[C@H](c2cccc(Cl)c2)NS1(=O)=O` [HBV-CSU-261-ISO-I, Cis-N-(3-Chloro-4-fluorophenyl)-5-(3-chlorophenyl)-2-methyl-1,2,6-thiadiazinane-3-carboxamide 1,1-dioxide], the EC50 is < 1000 nM.

As to `Cc1sc(C2CC(C(=O)Nc3ccc(F)c(Cl)c3)N(C)S(=O)(=O)N2)cc1-c1cnn(C)c1` (racemic) [HBV-CSU-304, Cis-N-(3-Chloro-4-fluorophenyl)-2-methyl-5-(5-methyl-4-(1-methyl-1H-pyrazol-4-yl)thiophen-2-yl)-1,2,6-thiadiazinane-3-carboxamide 1,1-dioxide], the EC50 was < 1000 nM.

Turning to `CN1C(C(=O)Nc2ccc(F)c(Cl)c2)CC(c2cccc(F)c2)NS1(=O)=O` (racemic) [HBV-CSU-231, Cis-N-(3-Chloro-4-fluorophenyl)-5-(3-fluorophenyl)-2-methyl-1,2,6-thiadiazinane-3-carboxamide 1,1-dioxide], the EC50 is < 1000 nM.

Consider `CN1C(C(=O)Nc2ccc(F)c(Cl)c2)CC(C2CCCC2)NS1(=O)=O` (racemic) [HBV-CSU-222, Cis-N-(3-chloro-4-fluorophenyl)-5-cyclopentyl-2-methyl-1,2,6-thiadiazinane-3-carboxamide 1,1-dioxide], for which the EC50 is < 1000 nM.
